We go through 26 molecules from patent publication US9938265B2, “1,3,4-thiadiazole compounds and their use in treating cancer” (AstraZeneca AB, priority 2015, dated 2018).

Structures are written as SMILES. Where two headings read alike, the source gives them in different places.

One assay deals with GLS1 (Homo sapiens (Human), UniProt O94925). Description: GLS Enzyme Potency Assay (Glutamate Oxidase/AmplexRed coupled assay). The assay is classed as biochemical. An excerpt: (§1) The following assays were used to measure the effects of the compounds described herein: a) GLS Enzyme Potency Assay; b) GLS Cell Potency Assay; c) GLS Cell Proliferation Assay. During the description of the assays, generally: • i. The following abbreviations have been used: CO2=Carbon dioxide; DMEM=Dulbecco's Modified Eagle Medium; DMSO=Dimethyl sulphoxide; EDTA=Ethylenediaminetetraacetic acid; EGTA=Ethylene glycol tetraacetic acid; FCS=Foetal calf serum; h=Hour(s); NBS=Non-binding surface; SDS=Sodium dodecyl sulphate; TRIS=Tris(Hydroxymethyl)aminomethane. • ii. IC50 values were calculated using a smart fitting model in Genedata.
Assay a): GLS Enzyme Potency Assay
A Glutamate Oxidase/AmplexRed coupled assay was used to measure the ability of compounds to bind to and inhibit the activity of GLS1 in vitro. […] GLS1 was diluted to 2× working concentration and incubated at room temperature to allow the tetrameric/dimeric forms to reach steady state. Assay measurements were performed in buffer comprising 50 mM TRIS pH 7.8, 100 mM NaPO4, pH 7.8, 0.001% v/v Tween20. Purified recombinant GLS1 protein was diluted in assay buffer to 12 nM and pre-incubated at room temperature for 30 minutes. […] DMSO concentration was maintained at 2% by back filling with DMSO solution. 3 μL of diluted GLS1 protein (12 nM) was then dispensed into each well using a BioRaptr automated dispenser (Beckman-Coulter) and incubated for 15 minutes at room temperature. 3 μL of 100 mM glutamine diluted in assay buffer was then added and the reaction incubated at room temperature for 60 minutes. […] An artefact version of the assay where the 6His tagged GLS protein and glutamine were replaced with assay buffer was also used to rule out non specific effects on the assay components.

In another assay the target is cellular GLS activity (Homo sapiens (Human), UniProt O94925). Description: GLS Cell Potency Assay (PC3 coupled assay measuring cellular glutamate depletion). The assay is classed as cell-based. Particulars: PC3 cells, 6 h incubation, glutamate depletion; read-out: Assay b) GLS cell MOA Mean IC50.
Description: as §1
Assay b): GLS Cell Potency Assay
Compounds were assessed for their potential to inhibit cellular GLS activity by use of a PC3 coupled assay measuring cellular glutamate depletion. […] DMSO concentration was maintained at 0.3% by back filling with DMSO solution. PC3 cells were grown in phenol free DMEM, 10% dialyzed FCS, 2 mM glutamine and following dispersal by trypsinisation were plated at 5.6×10^3 cells per well in 40 μl of growth medium directly into the 384 well assay plates containing dispensed compound. After incubation for 6 h at 37° C., 5% CO2 growth media was aspirated and cells lysed in 15 μl of buffer containing 10 mM TRIS pH7.4, 100 mM NaCl, 1 mM EDTA, 1 mM EGTA, 1 mM NaF, 20 mM Na4P2O7, 2 mM Na3VO4, 1% Triton X-100, 10% glycerol, 0.1% SDS and 0.5% deoxycholate.

In the next assay the test system is NCI-H1703 cells. Description: GLS Cell Proliferation Assay (NCI-H1703 cell proliferation). The assay is classed as cell-based.
Description: as §1
Assay c): GLS Cell Proliferation Assay
The ability of compounds to inhibit cell growth was measured using a 384 well plate NCI-H1703 cell proliferation assay. NCI-H1703 cells were grown in phenol red free RPMI1640, 10% FCS and 2 mM glutamine and seeded at a density of 750 cells per well in 40 μl of growth medium into clear-bottom 384 well assay plates (Corning product code 3712) and incubated for 24 h at 37° C., 5% CO2. Test compounds were prepared by dilution in 100% DMSO to give the correct dose range for 12 point concentration response and an appropriate volume (5-120 nl) dispensed directly into the assay plates containing plated cells. DMSO concentration was maintained at 0.3% by back filling with DMSO solution. Plates were incubated for 5 days at 37° C., 5% CO2, Sytox Green and Saponin added to final concentration of 2 μM and 0.25% respectively and incubated for 6 h prior to analysis. Plates were read on an Acumen eX3 (TTP Labtech) using 488 nm excitation and FITC filter set (500-530 nm) for emission. IC50 values were calculated by curve fitting to max inhibition of day zero growth using GeneData software analysis.

The mark [1] stands for this setting: 6His tagged GLS protein (amino acids 63-669), glutamine substrate; read-out: Assay a) enz IC50.
The mark [2] stands for this setting: NCI-H1703 cells, 5 days; read-out: Assay c) Prolif Mean IC50.
[3] abbreviates: Homo sapiens, NCI-H1703, 120 h, NCI-H1703 cells, 5 days; read-out: Assay c) Prolif Mean IC50.

Chain of cellular GLS activity (O94925 73-669): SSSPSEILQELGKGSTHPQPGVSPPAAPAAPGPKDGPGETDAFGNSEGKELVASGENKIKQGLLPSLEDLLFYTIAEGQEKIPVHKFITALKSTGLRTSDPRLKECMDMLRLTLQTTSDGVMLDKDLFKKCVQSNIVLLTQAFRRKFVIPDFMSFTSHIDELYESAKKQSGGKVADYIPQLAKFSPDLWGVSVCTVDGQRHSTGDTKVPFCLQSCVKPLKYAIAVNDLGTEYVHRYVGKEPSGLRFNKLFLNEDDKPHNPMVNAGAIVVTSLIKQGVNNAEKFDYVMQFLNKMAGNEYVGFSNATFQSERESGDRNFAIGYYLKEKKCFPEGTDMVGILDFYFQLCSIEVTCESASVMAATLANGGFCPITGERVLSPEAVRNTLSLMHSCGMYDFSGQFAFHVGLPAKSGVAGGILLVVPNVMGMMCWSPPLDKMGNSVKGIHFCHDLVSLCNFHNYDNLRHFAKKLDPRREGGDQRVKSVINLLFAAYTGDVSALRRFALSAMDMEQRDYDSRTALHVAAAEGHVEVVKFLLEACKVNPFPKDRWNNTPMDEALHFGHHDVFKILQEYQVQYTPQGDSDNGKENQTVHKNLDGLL
Chain of GLS1 (O94925 63-669): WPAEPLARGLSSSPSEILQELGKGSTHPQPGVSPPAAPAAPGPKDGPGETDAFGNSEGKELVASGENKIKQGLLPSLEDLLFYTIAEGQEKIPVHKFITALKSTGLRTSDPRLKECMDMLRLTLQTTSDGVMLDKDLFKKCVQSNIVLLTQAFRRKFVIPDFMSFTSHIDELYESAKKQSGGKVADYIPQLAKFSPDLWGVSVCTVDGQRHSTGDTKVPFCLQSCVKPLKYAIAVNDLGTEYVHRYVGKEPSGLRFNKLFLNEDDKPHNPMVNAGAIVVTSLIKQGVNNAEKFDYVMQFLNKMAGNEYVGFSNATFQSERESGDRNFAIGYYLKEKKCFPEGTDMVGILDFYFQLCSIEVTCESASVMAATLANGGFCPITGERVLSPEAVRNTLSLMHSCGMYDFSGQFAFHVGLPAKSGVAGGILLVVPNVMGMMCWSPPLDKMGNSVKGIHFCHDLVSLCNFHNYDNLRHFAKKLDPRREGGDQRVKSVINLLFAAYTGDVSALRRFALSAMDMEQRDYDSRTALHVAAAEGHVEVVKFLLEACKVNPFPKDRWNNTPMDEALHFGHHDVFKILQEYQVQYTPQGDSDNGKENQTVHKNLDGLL

Broadly, the IC50 is the midpoint of a concentration-inhibition curve. For `COc1cccc([C@H](OC)C(=O)Nc2nnc(N[C@@H]3CCN(c4ccc(C)nn4)C3)s2)c1` (single isomer, unassigned) [Example 1(a)], the concentration for half-maximal inhibition (IC50) at GLS1 (setting [1]) amounted to 55.4 nM; on cellular GLS activity it was 0.566 nM; in the assay with NCI-H1703 cells (setting [2]) it was 4.59 nM.
For `COC(C(=O)Nc1nnc(N[C@@H]2CCN(c3ccc(F)nn3)C2)s1)c1cccc(OC(F)(F)F)c1` (single isomer, unassigned) [Example 17] the same measures were 24.3 nM, 0.251 nM and 1.74 nM.
As for `COc1cc([C@H](OC)C(=O)Nc2nnc(N[C@@H]3CCN(c4ccc(C)nn4)C3)s2)ccc1F` (single isomer, unassigned) [Example 6(a)], in the assay on NCI-H1703 cells (setting [2]), the half-maximal inhibitory concentration (IC50) amounted to 20.9 nM.
Regarding `COc1cc(C(OC)C(=O)Nc2nnc(N[C@@H]3CCN(c4ccc(F)nn4)C3)s2)ccc1F` (single isomer, unassigned) [Example 23], the IC50 at GLS1 (setting [1]) came out at 265 nM; on cellular GLS activity it was 197 nM; in the assay on NCI-H1703 cells (setting [2]), 106 nM.
For `CO[C@H](C(=O)Nc1nnc(N[C@@H]2CCN(c3ccc(C)nn3)C2)s1)c1cccc(OC(F)(F)F)c1` (single isomer, unassigned) [7(b)], the IC50 on GLS1 (read-out: Assay a) enz IC50) is 334 nM; at cellular GLS activity, 12.7 nM; with NCI-H1703 cells (setting [2]), 25.6 nM.
Take `COc1ccc([C@H](OC)C(=O)Nc2nnc(N[C@@H]3CCN(c4cc(Cl)cnn4)C3)s2)cc1` (single isomer, unassigned) [Example 11(a)]: the IC50 on GLS1 (setting [1]) amounted to 15.9 nM; in the assay with NCI-H1703 cells (setting [2]), 54.4 nM.
As to `CO[C@H](C(=O)Nc1nnc(N[C@@H]2CCN(c3ccc(F)nn3)C2)s1)c1cccc(OC(F)F)c1` [Example 9(a), (2S)-2-[3-(difluoromethoxy)phenyl]-N-[5-[[(3R)-1-(6-fluoropyridazin-3-yl)pyrrolidin-3-yl]amino]-1,3,4-thiadiazol-2-yl]-2-methoxy-acetamide], the IC50 with NCI-H1703 cells (setting [3]) stood at 3.09 nM.
As for `CO[C@H](C(=O)Nc1nnc(N[C@@H]2CCN(c3ccc(C)nn3)C2)s1)c1ccccc1` [Example 14, (2S)-2-methoxy-N-[5-[[(3R)-1-(6-methylpyridazin-3-yl)pyrrolidin-3-yl]amino]-1,3,4-thiadiazol-2-yl]-2-phenyl-acetamide], the IC50 is 44.3 nM at GLS1 (setting [1]), 1.04 nM on cellular GLS activity and 22.7 nM in the assay on NCI-H1703 cells (setting [3]).
As for `CO[C@H](C(=O)Nc1nnc(N[C@@H]2CCN(c3ccc(C)nn3)C2)s1)c1ccc(F)cc1` (single isomer, unassigned) [5(b)], the IC50 at GLS1 (read-out: Assay a) enz IC50) turned out to be 975 nM; in the assay with NCI-H1703 cells (setting [2]), 1020 nM.
As to `CCOC(C(=O)Nc1nnc(N[C@@H]2CCN(c3ccc(C)nn3)C2)s1)c1ccc(F)cc1` (single isomer, unassigned) [Example 28], the IC50 on GLS1 (setting [1]) was 96 nM; at cellular GLS activity it was 3.57 nM; with NCI-H1703 cells (setting [2]) it was 73.2 nM.
Regarding `CO[C@H](C(=O)Nc1nnc(N[C@@H]2CCN(c3cc(Cl)cnn3)C2)s1)c1ccccc1` [Example 12, (2S)-N-[5-[[(3R)-1-(5-Chloropyridazin-3-yl)pyrrolidin-3-yl]amino]-1,3,4-thiadiazol-2-yl]-2-methoxy-2-phenyl-acetamide], the IC50 came to 35.3 nM on GLS1 (setting [1]), 0.451 nM at cellular GLS activity and 3.07 nM in the assay with NCI-H1703 cells (setting [3]).
`CCO[C@H](C(=O)Nc1nnc(N[C@@H]2CCN(c3ccc(C)nn3)C2)s1)c1cccc(OC)c1` (single isomer, unassigned) [4(b)]: the IC50 was 290 nM at GLS1 (read-out: Assay a) enz IC50), 43.1 nM at cellular GLS activity and 389 nM with NCI-H1703 cells (setting [2]).
On to `COc1ccc([C@H](OC)C(=O)Nc2nnc(N[C@@H]3CCN(c4cc(C)cnn4)C3)s2)cc1` (single isomer, unassigned) [33(b)], for which the figures for the IC50 on GLS1 (setting [1]), on cellular GLS activity and in the assay on NCI-H1703 cells (setting [2]) were 79.9 nM, 2.35 nM and 37.9 nM, respectively.
`COc1ccc(C(OC)C(=O)Nc2nnc(N[C@@H]3CCN(c4ccc(F)nn4)C3)s2)cc1` (single isomer, unassigned) [Example 22]: the concentration for half-maximal inhibition (IC50) on GLS1 (setting [1]) was 18.9 nM; on cellular GLS activity it was 2.45 nM; with NCI-H1703 cells (setting [2]), 36.9 nM.
For `CO[C@H](C(=O)Nc1nnc(N[C@@H]2CCN(c3ccc(C)nn3)C2)s1)c1cccc(OC(F)F)c1` (single isomer, unassigned) [8(a)] the same measures were 99.4 nM, 1.3 nM and 5.48 nM.
Regarding `COc1ccc(C(OC)C(=O)Nc2nnc(N[C@@H]3CCN(c4ccc(F)nn4)C3)s2)cc1` (single isomer, unassigned) [Example 21], the concentration for half-maximal inhibition (IC50) was determined as 223 nM at GLS1 (setting [1]), 53.7 nM on cellular GLS activity and 930 nM in the assay on NCI-H1703 cells (setting [2]).
Take `CO[C@H](C(=O)Nc1nnc(N[C@@H]2CCN(c3cc(C)cnn3)C2)s1)c1ccc(F)cc1` (single isomer, unassigned) [10(b)]: the IC50 with NCI-H1703 cells (setting [2]) amounted to 204 nM.
Regarding `COc1ccc([C@H](OC)C(=O)Nc2nnc(N[C@@H]3CCN(c4cc(Cl)cnn4)C3)s2)cc1` (single isomer, unassigned) [11(b)], the IC50 worked out at 84.8 nM at GLS1 (read-out: Assay a) enz IC50), 10.5 nM on cellular GLS activity and 129 nM with NCI-H1703 cells (setting [2]).
As for `CCOC(C(=O)Nc1nnc(N[C@@H]2CCN(c3ccc(C)nn3)C2)s1)c1ccc(OC)cc1` (single isomer, unassigned) [Example 15], the figures for the half-maximal inhibitory concentration (IC50) at GLS1 (setting [1]), at cellular GLS activity and in the assay with NCI-H1703 cells (setting [2]) were 277 nM, 34.8 nM and 567 nM, respectively.
For `COc1ccc(C(OC)C(=O)Nc2nnc(N[C@@H]3CCN(c4ccc(C)nn4)C3)s2)cc1` (stereo partly drawn) [Example 30, 2-methoxy-2-(4-methoxyphenyl)-N-[5-[[(3R)-1-(6-methylpyridazin-3-yl)pyrrolidin-3-yl]amino]-1,3,4-thiadiazol-2-yl]acetamide] the same measures were 119 nM, 5.29 nM and 43.7 nM.
For `CCOC(C(=O)Nc1nnc(N[C@@H]2CCN(c3ccc(F)nn3)C2)s1)c1ccc(F)cc1` (single isomer, unassigned) [Example 25] the same measures were 1090 nM, 63.2 nM and 686 nM.
In the case of `CO[C@@H](C(=O)Nc1nnc(N[C@@H]2CCN(c3ccc(F)nn3)C2)s1)c1cccc(OC(F)F)c1` [9(b), (2R)-2-[3-(difluoromethoxy)phenyl]-N-[5-[[(3R)-1-(6-fluoropyridazin-3-yl)pyrrolidin-3-yl]amino]-1,3,4-thiadiazol-2-yl]-2-methoxy-acetamide], the IC50 in the assay on NCI-H1703 cells (setting [3]) stood at 469 nM.
The same measure, in the same setting: with `COc1cccc([C@H](OC)C(=O)Nc2nnc(N[C@@H]3CCN(c4ccc(F)nn4)C3)s2)c1` [Example 3, (2S)-N-[5-[[(3R)-1-(6-Fluoropyridazin-3-yl)pyrrolidin-3-yl]amino]-1,3,4-thiadiazol-2-yl]-2-methoxy-2-(3-methoxyphenyl)acetamide] the figure was 3.62 nM.
As to `COc1ccc(C(OC)C(=O)Nc2nnc(N[C@@H]3CCN(c4ccc(C)nn4)C3)s2)cc1` (stereo partly drawn) [Example 29, 2-methoxy-2-(4-methoxyphenyl)-N-[5-[[(3R)-1-(6-methylpyridazin-3-yl)pyrrolidin-3-yl]amino]-1,3,4-thiadiazol-2-yl]acetamide], the IC50 on GLS1 (setting [1]) was determined as 1280 nM; in the assay with NCI-H1703 cells (setting [2]), 586 nM.
Regarding `COc1cc([C@H](OC)C(=O)Nc2nnc(N[C@@H]3CCN(c4ccc(C)nn4)C3)s2)ccc1F` (single isomer, unassigned) [6(b)], the IC50 with NCI-H1703 cells (setting [2]) came out at 926 nM.
Regarding `CO[C@H](C(=O)Nc1nnc(N[C@@H]2CCN(c3cc(C)cnn3)C2)s1)c1ccc(F)cc1` (single isomer, unassigned) [Example 10(a)], the IC50 in the assay on NCI-H1703 cells (setting [2]) was 1210 nM.
